`Cl.OC1(Cc2ccccc2)CCN(CCCc2c(-c3ccc(Cl)cc3)[nH]c3ccc(Cl)cc23)CC1` gave a melting point of 147 to 150 °C.
